Among the test systems are XF498; HCC 2998; HOP-18; SK-MEL-2; DMS-114; SF-539; HOP-62; SNB-78; M19-MEL; HOP-92; KM-20L2; RPMI-8226; UACC-257; MCF7.
Holding throughout (test): NCI-60 cell line screen, 48 h

Molecules are shown by their SMILES.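 48-hour exposure; five concentrations; linearly interpolated endpoints. Here, GI50 denotes the concentration required for 50% inhibition of growth.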 The source made the active and inactive calls. Rule as the data show it: active = GI50 up to about 1.1 µM and inactive = higher. A value given as a limit tells only on which side of the number the result lay.

For `CN(C)CCNC(=O)c1cccc2[nH]c(-c3ccc(Cl)cc3)nc12`, the GI50 was 4.49 µM (inactive) with XF498; 4.05 µM (inactive) in the assay on HCC 2998; 14.4 µM (inactive) in the assay on HOP-18; 13.4 µM (inactive) with SK-MEL-2; 8.61 µM (inactive) in the assay on DMS-114; 4.65 µM (inactive) with SF-539. Moreover, the GI50 is 8.77 µM (inactive) in the assay with HOP-62; 15.9 µM (inactive) with SNB-78; 6.98 µM (inactive) in the assay with M19-MEL; 5.25 µM (inactive) in the assay on HOP-92; 5.14 µM (inactive) with KM-20L2; 2.76 µM (inactive) in the assay with RPMI-8226. Also, the GI50 with UACC-257 was 7.78 µM (inactive); in the assay on MCF7 it was 3.66 µM (inactive).

Consider `CC(C)C1NC(=O)CC(c2ccccc2)N(N=O)C1c1ccccc1` (stereo unspecified), for which the GI50 in the assay on XF498 is 37.8 µM (inactive); in the assay on HCC 2998, > 100 µM (inactive); with HOP-18 it was > 100 µM (inactive); in the assay on SK-MEL-2, > 100 µM (inactive); in the assay with DMS-114, > 95.7 µM (inactive); with SF-539 it was > 100 µM (inactive). In addition, the GI50 in the assay with HOP-62 was > 100 µM (inactive); with SNB-78, > 100 µM (inactive); in the assay on M19-MEL, > 100 µM (inactive); with HOP-92, > 51.3 µM (inactive); with KM-20L2, > 100 µM (inactive); with RPMI-8226 it was 81.8 µM (inactive). In addition, the GI50 with UACC-257 and with MCF7 was > 100 µM (inactive) each time.

For `O=C(O)CNS(=O)(=O)c1ccc(NC(=O)Nc2ccccc2)cc1`, the GI50 with XF498, with HCC 2998, in the assay with HOP-18, in the assay on SK-MEL-2, in the assay on DMS-114 and in the assay with SF-539 was > 100 µM (inactive) each time. Further, the GI50 is > 100 µM (inactive) in the assay on HOP-62; > 100 µM (inactive) in the assay on SNB-78; > 38 µM (inactive) in the assay with M19-MEL; > 100 µM (inactive) with HOP-92; > 100 µM (inactive) in the assay on KM-20L2; > 100 µM (inactive) in the assay on RPMI-8226. Moreover, the GI50 in the assay on UACC-257 and in the assay with MCF7 was > 100 µM (inactive) throughout.

For `Cc1c2cc[n+](Cc3ccc(I)cc3)cc2c(C)c2c1[nH]c1ccccc12`, the GI50 in the assay with XF498 was 0.433 µM (active); in the assay on HCC 2998, 0.881 µM (active); in the assay with HOP-18, 1 µM (active); with SK-MEL-2, 0.614 µM (active); in the assay with DMS-114 it was 0.605 µM (active); with SF-539, 1.74 µM (inactive). Besides, the GI50 with HOP-62 is 0.778 µM (active); in the assay with SNB-78, 0.731 µM (active); in the assay on M19-MEL it was 0.254 µM (active); in the assay on HOP-92 it was 0.56 µM (active); in the assay with KM-20L2, 0.748 µM (active); in the assay with RPMI-8226 it was 0.518 µM (active). Further, the GI50 is 0.646 µM (active) with UACC-257 and 0.783 µM (active) with MCF7.
